Data on ten compounds can be found in article PMC3713097 (Chemical research in toxicology, 2013).

Series [1] addresses T1, P450 2A6 (Homo sapiens, UniProt P11509).
T1 sequence (P11509 1-494): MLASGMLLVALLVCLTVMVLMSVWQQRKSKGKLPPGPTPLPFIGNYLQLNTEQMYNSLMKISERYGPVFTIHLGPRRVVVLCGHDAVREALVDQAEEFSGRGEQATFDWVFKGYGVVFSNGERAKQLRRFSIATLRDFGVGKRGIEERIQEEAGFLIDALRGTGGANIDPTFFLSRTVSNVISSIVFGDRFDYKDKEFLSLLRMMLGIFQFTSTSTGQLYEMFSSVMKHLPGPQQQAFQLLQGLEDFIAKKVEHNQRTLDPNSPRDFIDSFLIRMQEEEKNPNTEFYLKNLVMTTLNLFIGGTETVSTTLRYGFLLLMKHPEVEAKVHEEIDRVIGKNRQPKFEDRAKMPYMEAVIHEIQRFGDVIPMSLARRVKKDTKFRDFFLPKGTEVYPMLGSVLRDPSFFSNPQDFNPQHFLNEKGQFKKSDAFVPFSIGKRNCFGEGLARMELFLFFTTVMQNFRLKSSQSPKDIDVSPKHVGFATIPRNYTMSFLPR
The conditions noted are these: pH 7.4.

Series [2] addresses T2, P450 1B1 (Homo sapiens, UniProt Q16678, L432V).
T2 sequence (Q16678 1-543 L432V): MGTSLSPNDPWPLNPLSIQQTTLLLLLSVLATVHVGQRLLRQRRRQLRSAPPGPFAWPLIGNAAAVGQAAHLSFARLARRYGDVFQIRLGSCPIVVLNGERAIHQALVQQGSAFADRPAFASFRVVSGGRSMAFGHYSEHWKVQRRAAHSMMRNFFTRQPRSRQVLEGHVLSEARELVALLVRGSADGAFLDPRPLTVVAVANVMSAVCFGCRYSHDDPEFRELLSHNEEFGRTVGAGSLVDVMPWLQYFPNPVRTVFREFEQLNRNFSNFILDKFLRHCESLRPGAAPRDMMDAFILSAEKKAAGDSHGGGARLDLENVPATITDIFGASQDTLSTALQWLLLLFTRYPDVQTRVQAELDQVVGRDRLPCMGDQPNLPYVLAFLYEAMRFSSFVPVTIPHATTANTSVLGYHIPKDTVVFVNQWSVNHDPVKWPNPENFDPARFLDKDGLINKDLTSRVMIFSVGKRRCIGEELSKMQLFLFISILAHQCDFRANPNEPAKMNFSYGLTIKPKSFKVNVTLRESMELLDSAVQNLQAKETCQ
Description: Spectral binding titration with purified P450 1B1.

Series [3] concerns the target T2, P450 1B1. The conditions noted are these: pH 7.4.
Series [4] concerns the target T3, human P450 2A13 (Homo sapiens, UniProt Q16696).
T3 sequence (Q16696 31-494 limits assumed): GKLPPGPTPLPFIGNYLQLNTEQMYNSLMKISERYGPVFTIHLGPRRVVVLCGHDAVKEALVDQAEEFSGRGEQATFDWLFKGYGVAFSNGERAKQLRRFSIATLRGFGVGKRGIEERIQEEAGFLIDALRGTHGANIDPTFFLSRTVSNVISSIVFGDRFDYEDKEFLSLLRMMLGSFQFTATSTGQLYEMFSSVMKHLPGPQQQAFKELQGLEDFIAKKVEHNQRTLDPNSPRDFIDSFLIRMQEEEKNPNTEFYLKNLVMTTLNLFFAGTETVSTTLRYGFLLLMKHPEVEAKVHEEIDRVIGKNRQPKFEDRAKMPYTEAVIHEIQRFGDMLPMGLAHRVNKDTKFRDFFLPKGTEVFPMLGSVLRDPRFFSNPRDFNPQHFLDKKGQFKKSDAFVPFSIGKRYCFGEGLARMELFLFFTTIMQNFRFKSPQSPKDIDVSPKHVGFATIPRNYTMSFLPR
Particulars: pH 7.4.

In the next series the target is T4, P450 2A13 (Homo sapiens, UniProt Q16696).
T4 sequence (Q16696 with tags, fused parts or gaps limits assumed): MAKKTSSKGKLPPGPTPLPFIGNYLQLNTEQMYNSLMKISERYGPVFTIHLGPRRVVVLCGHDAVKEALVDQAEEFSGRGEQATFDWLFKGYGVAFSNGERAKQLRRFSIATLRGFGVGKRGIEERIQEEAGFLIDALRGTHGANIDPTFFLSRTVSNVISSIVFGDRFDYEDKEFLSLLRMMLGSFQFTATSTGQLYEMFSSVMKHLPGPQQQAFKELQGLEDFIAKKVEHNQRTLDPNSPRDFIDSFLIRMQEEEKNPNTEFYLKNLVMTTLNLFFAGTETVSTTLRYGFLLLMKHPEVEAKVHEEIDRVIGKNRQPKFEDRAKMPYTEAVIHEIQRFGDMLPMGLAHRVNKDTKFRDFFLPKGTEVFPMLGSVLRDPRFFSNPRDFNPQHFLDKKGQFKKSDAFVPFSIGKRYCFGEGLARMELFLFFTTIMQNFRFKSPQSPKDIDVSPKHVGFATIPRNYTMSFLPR
As to the kind of experiment: Spectral binding titration with purified P450 2A13.

Series [5] concerns the target T1, P450 2A6. As to the kind of experiment: Spectral binding titration with purified P450 2A6.
The target in series [6] is T2, P450 1B1. The conditions noted are these: 10 nM P450, 2.5 µM procarcinogen, means ± range of duplicate experiments.
The target of series [7] is T1, P450 2A6. Particulars: 10 nM P450, 2.5 µM procarcinogen, means ± range of duplicate experiments.
Series [8] has as its target T3, human P450 2A13. Particulars: 10 nM P450, 2.5 µM procarcinogen, means ± range of duplicate experiments.
Setting [9] is: P450 1B1, Reverse Type I spectra.
Setting [10] is: P450 1B1, Reverse Type I spectra, ± SE.
[11] abbreviates: P450 2A13, Type I spectra, ± SE.

Read-outs that look alike come from different tables or passages of the source.

As to `OC1C=Cc2c(ccc3cc4ccccc4cc23)C1O` (stereo not drawn) [B[a]A-trans-3,4-diol, 3,4-dihydroxy-3,4-dihydrobenz[a]anthracene], the “activation of procarcinogens umu gene expression” value (shortened to “activation”) at P450 2A6 [1] (2.5 µM), at P450 1B1 [3] (2.5 µM) and at human P450 2A13 [4] (2.5 µM) was less than 10 units/min/nmol P450 each time. The Kd (as a rule, a measure of binding affinity in units of concentration) on P450 1B1 [2] (human, pH 7.4) was more than 20 µM.
For `C1=Cc2cccc3cccc1c23` [acenaphthylene], the “activation” value on P450 2A6 [1] (2.5 µM), on P450 1B1 [3] (2.5 µM) and at human P450 2A13 [4] (2.5 µM) was less than 10 units/min/nmol P450 each time. Also, the dissociation constant Kd is more than 20 µM at P450 1B1 [2], 0.61 ± 0.19 µM on P450 2A13 and 4.4 ± 0.52 µM on P450 2A6 [5]. In addition, the ΔAmax at P450 2A13 was determined as 0.050 ± 0.004; at P450 2A6 [5], 0.076 ± 0.52. The results for the “ΔAmax/ Ks” value at P450 2A13 and at P450 2A6 [5] were 0.082 and 0.017, respectively. In addition, on P450 2A6 [5], the “spectral interaction with P450 2A6 (Type I binding spectra)” value is given as “interacted”.
For the compound `Cc1c2ccccc2c(C)c2c3c(ccc12)C(O)C(O)C=C3` (stereo not drawn) [7,12-DMBA-3,4-diol, 3,4-dihydroxy-3,4-dihydro-7,12-dimethylbenz[a]anthracene], the “activation” value at P450 2A6 [1] (2.5 µM) was determined as 55 ± 13 units/min/nmol P450; at P450 1B1 [3] (2.5 µM) it was 2700 ± 110 units/min/nmol P450; on human P450 2A13 [4] (2.5 µM), 280 ± 33 units/min/nmol P450. Moreover, the Kd on P450 1B1 [2] (human, pH 7.4) is more than 20 µM; on P450 2A13 (human, pH 7.4), more than 20 µM.
Regarding `c1ccc2c(c1)-c1cccc3cccc-2c13` [fluoranthene], the “activation” value on P450 2A6 [1], on P450 1B1 [3] and at human P450 2A13 [4] was less than 10 units/min/nmol P450 in each case. The figures for the Kd at P450 1B1 [2], on P450 2A13 and on P450 2A6 [5] were 1.6 ± 0.32 µM, 2.4 ± 1.5 µM and more than 20 µM, respectively. The ΔAmax was found to be 0.066 ± 0.003 on P450 1B1 [2] and 0.044 ± 0.011 on P450 2A13. The “ΔAmax/ Ks” value was found to be 0.042 on P450 1B1 [2] and 0.018 on P450 2A13.
`c1ccc2c(c1)ccc1ccc3ccccc3c12` [B[c]Phe, benzo[c]phenanthrene]: the equilibrium dissociation constant (Kd) is 2.5 ± 0.31 µM on P450 1B1 [2], 1.1 ± 0.44 µM at P450 2A13 and more than 20 µM on P450 2A6 [5]. The “ΔAmax/ Ks” value is listed as 0.016 on P450 1B1 [2] (setting [9]) and 0.045 on P450 2A13 (P450 2A13, Type I spectra). Also, the values for the ΔAmax at P450 1B1 [2] (setting [10]) and on P450 2A13 (setting [11]) were 0.039 ± 0.001 and 0.049 ± 0.005, respectively. The figures for the “activation” value on P450 1B1 [6], on P450 2A6 [7] and on human P450 2A13 [8] were 25 ± 10 units/min/nmol P450, 22 ± 8 units/min/nmol P450 and 55 ± 11 units/min/nmol P450, respectively.
On to `Cc1cnc2ccc3c(nc(N)n3C)c2n1` [MeIQx, 2-amino-3,8-dimethylimiidazo[4,5-f]quinoxaline], for which the “activation” value was 45 ± 15 units/min/nmol P450 at P450 2A6 [1], 87 ± 11 units/min/nmol P450 at P450 1B1 [3] and 110 ± 15 units/min/nmol P450 at human P450 2A13 [4].
Turning to `Cc1c(N)nc(C)c2c1[nH]c1ccccc12` [Trp-P-1, 3-amino-1,4-dimethyl-5H-pyrido[4,3-b]indole], the figures for the “activation” value at P450 2A6 [1], on P450 1B1 [3] and on human P450 2A13 [4] were 61 ± 11 units/min/nmol P450, 910 ± 90 units/min/nmol P450 and 40 ± 9 units/min/nmol P450, respectively. Further, the equilibrium dissociation constant (Kd) at P450 1B1 [2] is more than 20 µM.
As for `OC1C=Cc2c(cc3ccc4cccc5ccc2c3c45)C1O` (racemic) [( ± )B[a]P-7,8-diol, 7,8-dihydroxy-7,8-dihydrobenzo[a]pyrene], the “activation” value at P450 2A6 [1] is reported as 45 ± 11 units/min/nmol P450; on P450 1B1 [6], 2600 ± 110 units/min/nmol P450; at human P450 2A13 [8] it was 136 ± 22 units/min/nmol P450. Also, the Kd on P450 1B1 [2] is 6.8 ± 1.2 µM; at P450 2A13, more than 20 µM. Besides, the “ΔAmax/ Ks” value at P450 1B1 [2] (setting [9]) was determined as 0.0035. Also, at P450 1B1 [2] (setting [10]), the ΔAmax is 0.024 ± 0.002.
Take `c1cc2c3c(cccc3c1)CC2` [acenaphthene]: the dissociation constant Kd at P450 1B1 [2] is more than 20 µM; at P450 2A13, 0.48 ± 0.1 µM; at P450 2A6 [5], 1.2 ± 0.21 µM. Further, the “ΔAmax/ Ks” value at P450 2A13 (P450 2A13, Type I spectra) is given as 0.15; on P450 2A6 [5] (P450 2A6, Type I spectra), 0.057. Moreover, the ΔAmax was 0.074 ± 0.005 at P450 2A13 (setting [11]) and 0.068 ± 0.002 on P450 2A6 [5] (P450 2A6, Type I spectra, ± SE). Besides, the “activation” value at P450 1B1 [6], at P450 2A6 [7] and on human P450 2A13 [8] was less than 10 units/min/nmol P450 in each case. At P450 2A6 [5] (result in words), the “spectral interaction with P450 2A6 (Type I binding spectra)” value was “interacted”.
For the compound `Cc1c2ccccc2c(C)c2c1ccc1ccccc12` [7,12-DMBA, 7,12-dimethylbenz[a]anthracene], the “activation” value at P450 2A6 [1] is recorded as less than 10 units/min/nmol P450; on P450 1B1 [3], 190 ± 21 units/min/nmol P450; at human P450 2A13 [4], less than 10 units/min/nmol P450. The results for the equilibrium dissociation constant (Kd) on P450 1B1 [2] and on P450 2A13 were 8.8 ± 1.3 µM and more than 20 µM, respectively. On P450 1B1 [2], this compound gave a ΔAmax of 0.039 ± 0.002. In addition, the “ΔAmax/ Ks” value on P450 1B1 [2] was found to be 0.0044.
